{"source": "paper PMC3071374", "about": "“High Throughput Screens Yield Small Molecule Inhibitors of Leishmania CRK3:CYC6 Cyclin-Dependent Kinase” (PLoS Neglected Tropical Diseases, 2011)", "key": {"[1]": {"test_system": "WT amastigote L. major", "experiment": "Intra-macrophage L. major amastigote assay", "format": "cell-based", "conditions": "synthesised azapurine derivatives, infected peritoneal macrophages; for IC50: read-out: IC50 against WT amastigote L. major", "protocol": "Macrophages were harvested from the peritoneum of Balb/C mice, centrifuged at 1000× g for 10 minutes at 4°C and resuspended in fresh RPMI 1640 media supplemented with 10% HIFCS and 1% (v/v) Gentamicin, as described previously. Macrophages were diluted to a cell density of 5×10^5 cells ml^-1 in RPMI supplemented with 10% HIFCS and 100 μl were added to each well of a 16-well Lab-tek cavity slide (50,000 mφ/well) and incubated at 37°C, 5% CO2 for subsequent experiments. […] Inhibitors were set up in a five-fold dilution series in RPMI 1640 medium supplemented with 10% […] of inhibitor were added to the wells in serial dilution and slides incubated for 72 hours at 37°C with 5% CO2. After 72 hours the medium was removed and replaced with fresh medium containing the same concentrations of inhibitors and incubated for a further 48 hours at 37°C with 5% CO2. At the end of the incubation period, the medium was removed, the slides were washed twice with fresh RPMI 1640 medium supplemented with 10% HIFCS then fixed with 100% methanol and stained with 10% Giemsa's stain for 10 minutes. The percentage of infected macrophages and number of amastigotes per macrophage were determined by light microscopy under oil immersion."}, "[2]": {"test_system": "WT promastigote L. major", "experiment": "L. major promastigote growth inhibition assay (resazurin)", "format": "cell-based", "conditions": "for inhibition of parasite growth in culture (in words): promastigotes and intra-macrophage amastigotes in culture; for IC50: 5 days at 25°C, read-out: IC50 against WT promastigote L. major", "protocol": "L. major wild type promastigotes (Friedlin strain: WHO designation MHOM/JL/81/Friedlin) were grown at 25°C in HOMEM medium (Invitrogen cat no. 041-94699111) supplemented with 10% (v/v) heat inactivated foetal calf serum (HIFCS) and 1% (v/v) penicillin/streptomycin antibiotics.\nCRK3 inhibitors were diluted into HOMEM medium supplemented with 10% HIFCS at twice the final screening concentration. Five-fold or ten-fold serial dilutions were carried out into HOMEM medium supplemented with 10% HIFCS. 100 µl of each drug concentration were added to a 96 well plate in duplicate. 100 µl of five-fold or ten-fold serial dilutions of 1 mM Pentamidine (Sigma) and an equivalent volume of 100% DMSO were included as positive and negative controls, in duplicate, respectively. L. major promastigote cells were diluted to a cell density of 2×10^6 cells ml^−1 in HOMEM media supplemented with 10% HIFCS and 100 µl added to all wells in 96 well plates. Plates were sealed with parafilm and incubated for 5 days at 25°C. After 5 days, 20 µl of filter sterile resazurin solution (12.5 mg resazurin salt in 100 ml PBS) (Sigma) was added to each of the wells and the plate incubated for a further 24 hours at 25°C. Fluorescence was measured using an Envision plate reader (Perkin Elmer) at 540 nm excitation wavelength and 590 nm emission wavelength."}, "[3]": {"molecular_target": "Leishmania CRK3:CYC6 (Leishmania major, UniProt O96526)", "sequence (Q4Q4U0 entry or part of it)": "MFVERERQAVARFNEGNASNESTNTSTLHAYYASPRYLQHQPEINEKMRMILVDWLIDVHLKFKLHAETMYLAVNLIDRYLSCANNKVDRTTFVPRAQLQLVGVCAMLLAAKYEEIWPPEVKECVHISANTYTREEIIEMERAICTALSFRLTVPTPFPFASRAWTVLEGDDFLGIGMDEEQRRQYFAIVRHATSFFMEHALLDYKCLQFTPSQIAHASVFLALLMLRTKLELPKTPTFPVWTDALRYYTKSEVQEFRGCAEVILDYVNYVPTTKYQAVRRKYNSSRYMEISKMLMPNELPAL", "sequence (O96526 entry or part of it)": "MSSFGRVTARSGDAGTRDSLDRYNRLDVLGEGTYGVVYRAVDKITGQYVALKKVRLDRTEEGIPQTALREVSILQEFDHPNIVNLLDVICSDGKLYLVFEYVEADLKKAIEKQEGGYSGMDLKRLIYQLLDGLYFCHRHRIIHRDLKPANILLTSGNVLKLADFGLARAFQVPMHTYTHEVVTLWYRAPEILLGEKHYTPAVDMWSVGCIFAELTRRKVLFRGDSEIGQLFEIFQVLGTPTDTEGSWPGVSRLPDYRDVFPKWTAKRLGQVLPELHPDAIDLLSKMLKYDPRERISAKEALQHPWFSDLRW", "format": "biochemical", "protocol": "(§1) Leishmania CRK3:CYC6 protein kinase assays were performed in 96-well microtiter plates in a final volume of 25 µl. Each assay point contained 7.5 ng of co-expressed histidine-tagged CRK3:CYC6 protein kinase complex (hereafter referred to as CRK3:CYC6) diluted in enzyme dilution buffer (EDB) (20 mM Tris-HCl pH 7.2, 0.5 mg ml^−1 BSA, 2.5% glycerol and 0.006% Brij-35). Assays were performed using the assay development buffer (ADB) (20 mM MOPS, pH 7.0, 25 mM β-glycerophosphate, 5 mM EGTA, 1 mM NaVO3, 1 mM DTT and 15 mM MgCl2) supplemented with 100 µM ATP, 0.5 µCi of γ-^32P ATP per reaction and histone H1 as a substrate used at 0.4 mg ml^−1. Two and three-fold titrations were set up to determine the concentration of enzyme to be used per assay point (7.5 ng) and to determine the concentrations of selected inhibitors required for 50% inhibition of Leishmania CRK3:CYC6 protein kinase activity (IC50 values), respectively. For IC50 determinations, assay mixes contained DMSO to a final concentration of 2%. Mammalian protein kinase assays were carried out according to the assay protocols developed at Cyclacel. Assays were carried out for 30 minutes at 30°C before stopping the reaction by the addition of an equal volume (25 µl) of 75 mM orthophosphoric acid. Samples were spotted onto a p81 cellulose filterplate (Nunc) and a vacuum applied. Wells were washed 3×200 µl with 75 mM phosphoric acid and the bottom of the plate sealed. 50 µl of Microscint 40 (Perkin Elmer) was added per well before incorporation of radioactivity was determined on a Topcount microplate scintillation counter."}, "[4]": {"molecular_target": "human CDK2:CycA (Homo sapiens, UniProt P24941)", "experiment": "Mammalian protein kinase assay / counter screen, CDK2:CYCA", "format": "biochemical", "conditions": "BioFocus SFK48 HTS hits, re-screen", "protocol": "as §1"}, "[5]": {"conditions": "synthesised azapurine derivatives"}, "[6]": {"conditions": "BioFocus SFK48 HTS hits, rescreen"}}, "note": "Read-outs that look alike come from different tables or passages of the source.", "data": [{"smiles": "COc1ccc(Cn2nnc3c(NCc4ccccn4)nc(CC4CCCCC4)nc32)cc1", "note": "[Compound 17]", "values": [{"measurement": "IC50", "setting": "[1]", "result": "5 to 15", "unit": "µM"}, {"measurement": "activity towards promastigote L. major (in words)", "setting": "[2]", "result": "showed a range of activity"}, {"measurement": "inhibition of parasite growth in culture (in words)", "setting": "[2]", "result": "inhibited parasite growth in culture"}, {"measurement": "IC50", "setting": "[2]; [5]", "result": 7.4, "unit": "µM"}, {"measurement": "IC50", "setting": "[3]; [5]", "result": 39.1, "unit": "µM"}]}, {"smiles": "COc1ccc(Cn2nnc3c(N4CCOCC4)nc(CC4CCCCC4)nc32)cc1", "note": "[Compound 20]", "values": [{"measurement": "inhibition of CRK3/CYC6 in vitro (in words)", "setting": "[3]", "result": "did not inhibit"}]}, {"smiles": "COc1ccc(-n2nnc3c(O)nc(Cc4ccc(Br)cc4)nc32)cc1", "note": "[Compound 26]", "values": [{"measurement": "IC50", "setting": "[3]; [5]", "result": "> 50", "unit": "µM"}]}, {"smiles": "COc1ccc(-n2nnc3c(N4CCOCC4)nc(CC4CCCCC4)nc32)cc1", "note": "[Compound 27]", "values": [{"measurement": "IC50", "setting": "[1]", "result": "15 to 30", "unit": "µM"}, {"measurement": "activity towards promastigote L. major (in words)", "setting": "[2]", "result": "showed a range of activity"}, {"measurement": "inhibition of parasite growth in culture (in words)", "setting": "[2]", "result": "inhibited parasite growth in culture"}, {"measurement": "IC50", "setting": "[2]; [5]", "result": 28.7, "unit": "µM"}, {"measurement": "IC50", "setting": "[3]; [5]", "result": 30.3, "unit": "µM"}]}, {"smiles": "COc1ccc(-n2nnc3c(NCCN4CCOCC4)nc(CC4CCCCC4)nc32)cc1", "note": "[Compound 28]", "values": [{"measurement": "IC50", "setting": "[1]", "result": "5 to 15", "unit": "µM"}, {"measurement": "activity towards promastigote L. major (in words)", "setting": "[2]", "result": "showed a range of activity"}, {"measurement": "inhibition of parasite growth in culture (in words)", "setting": "[2]", "result": "inhibited parasite growth in culture"}, {"measurement": "IC50", "setting": "[2]; [5]", "result": 8.3, "unit": "µM"}, {"measurement": "inhibition of CRK3/CYC6 in vitro (in words)", "setting": "[3]", "result": "did not inhibit"}, {"measurement": "IC50", "setting": "[3]; [5]", "result": "> 50", "unit": "µM"}]}, {"smiles": "COc1ccc(-n2nnc3c(NCCN4CCOCC4)nc(Cc4ccccc4)nc32)cc1", "note": "[Compound 30]", "values": [{"measurement": "activity against amastigotes (in words)", "setting": "[1]", "result": "Activity observed at 10 μM"}, {"measurement": "activity towards promastigote L. major (in words)", "setting": "[2]", "result": "showed a range of activity"}, {"measurement": "inhibition of parasite growth in culture (in words)", "setting": "[2]", "result": "inhibited parasite growth in culture"}, {"measurement": "IC50", "setting": "[2]; [5]", "result": 3.8, "unit": "µM"}, {"measurement": "IC50", "setting": "[3]; [5]", "result": "> 100", "unit": "µM"}]}, {"smiles": "COc1ccc(-n2nnc3c(N4CCCC(CO)C4)nc(Cc4ccccc4)nc32)cc1", "note": "(stereo not drawn) [Compound 31]", "values": [{"measurement": "activity against amastigotes (in words)", "setting": "[1]", "result": "Activity observed at 25 μM"}, {"measurement": "activity towards promastigote L. major (in words)", "setting": "[2]", "result": "showed a range of activity"}, {"measurement": "IC50", "setting": "[2]; [5]", "result": 40, "unit": "µM"}, {"measurement": "IC50", "setting": "[3]; [5]", "result": "> 20", "unit": "µM"}]}, {"smiles": "COc1ccc(-n2nnc3c(NCC(C)O)nc(Cc4ccccc4)nc32)cc1", "note": "(stereo not drawn) [Compound 32]", "values": [{"measurement": "IC50", "setting": "[1]", "result": "> 25", "unit": "µM"}, {"measurement": "IC50", "setting": "[2]; [5]", "result": "> 50", "unit": "µM"}, {"measurement": "IC50", "setting": "[3]; [5]", "result": "> 100", "unit": "µM"}]}, {"smiles": "ONc1nc(CC2CCCCC2)nc2c1nnn2Cc1ccc(F)cc1", "note": "[Compound 35]", "values": [{"measurement": "IC50", "setting": "[1]", "result": "> 50", "unit": "µM"}, {"measurement": "IC50", "setting": "[2]; [5]", "result": "> 50", "unit": "µM"}, {"measurement": "IC50", "setting": "[3]; [5]", "result": "> 50", "unit": "µM"}]}, {"smiles": "NC(c1ccccc1)c1csc(NC(=O)Nc2ccccc2)n1", "note": "(stereo not drawn) [Compound 36]", "values": [{"measurement": "IC50", "setting": "[4]", "result": "> 20", "unit": "µM"}, {"measurement": "IC50", "setting": "[2]; BioFocus SFK48 HTS hits", "result": 26.8, "unit": "µM"}, {"measurement": "IC50", "setting": "[3]; [6]", "result": 3.5, "unit": "µM"}]}, {"smiles": "NC(c1ccccc1)c1csc(NC(=O)Nc2ccccc2Cl)n1", "note": "(stereo not drawn) [Compound 37]", "values": [{"measurement": "IC50", "setting": "[4]", "result": "> 20", "unit": "µM"}, {"measurement": "IC50", "setting": "[2]; BioFocus SFK48 HTS hits", "result": 27.5, "unit": "µM"}, {"measurement": "IC50", "setting": "[3]; [6]", "result": 4.8, "unit": "µM"}]}, {"smiles": "COc1ccc(CC(N)c2csc(NC(=O)Nc3ccccc3Oc3ccccc3)n2)cc1", "note": "(stereo not drawn) [Compound 38]", "values": [{"measurement": "IC50", "setting": "[4]", "result": "> 20", "unit": "µM"}, {"measurement": "IC50", "setting": "[2]; BioFocus SFK48 HTS hits", "result": 3.3, "unit": "µM"}, {"measurement": "IC50", "setting": "[3]; [6]", "result": 5, "unit": "µM"}]}, {"smiles": "COc1ccc(C(N)c2csc(NC(=O)Nc3ccc(C(C)C)cc3)n2)cc1", "note": "(stereo not drawn) [Compound 39]", "values": [{"measurement": "IC50", "setting": "[4]", "result": "> 20", "unit": "µM"}, {"measurement": "IC50", "setting": "[2]; BioFocus SFK48 HTS hits", "result": 3.8, "unit": "µM"}, {"measurement": "IC50", "setting": "[3]; [6]", "result": 7.5, "unit": "µM"}]}, {"smiles": "CC(C)c1ccccc1NC(=O)Nc1nc(C2CCC(=O)N2)cs1", "note": "(stereo not drawn) [Compound 40]", "values": [{"measurement": "IC50", "setting": "[4]", "result": "> 20", "unit": "µM"}, {"measurement": "IC50", "setting": "[2]; BioFocus SFK48 HTS hits", "result": "> 50", "unit": "µM"}, {"measurement": "IC50", "setting": "[3]; [6]", "result": 7.8, "unit": "µM"}]}, {"smiles": "Cc1ccccc1NC(=O)Nc1nc(C(N)c2ccccc2Cl)cs1", "note": "(stereo not drawn) [Compound 41]", "values": [{"measurement": "IC50", "setting": "[4]", "result": "> 20", "unit": "µM"}, {"measurement": "IC50", "setting": "[2]; BioFocus SFK48 HTS hits", "result": 26.1, "unit": "µM"}, {"measurement": "IC50", "setting": "[3]; [6]", "result": 9, "unit": "µM"}]}, {"smiles": "NC(c1ccccc1)c1csc(NC(=O)Nc2ccc(OC(F)(F)F)cc2)n1", "note": "(stereo not drawn) [Compound 42]", "values": [{"measurement": "IC50", "setting": "[4]", "result": "> 20", "unit": "µM"}, {"measurement": "IC50", "setting": "[2]; BioFocus SFK48 HTS hits", "result": 6.9, "unit": "µM"}, {"measurement": "IC50", "setting": "[3]; [6]", "result": 10, "unit": "µM"}]}]}
